Here are results for one molecule from patent publication US20250222116A1, “PARP-1 DEGRADATION AGENT AND USE THEREOF” (XIZANG HAISCO PHARMACEUTICAL CO., LTD., priority 2021, published 2025).

One series has as its target PARP2 (Homo sapiens (Human), UniProt Q9UGN5). Briefly: PARP2 protein expression level in MDA-MB-436 cells. The class given is cell-based. On the procedure: MDA-MB-436 cells were placed in a complete L-15 medium (supplemented with 15% FBS; 10 μg/mL Insulin; 16 μg/mL Glutathione and 1% penicillin-streptomycin solution), and cultured at 37° C. under CO2-free conditions. The cells in the logarithmic growth phase were collected, the cell density was adjusted to 2×10^5 cells/well with the culture medium, and the cells were added to a 6-well cell culture plate at a volume of 1 mL/well and cultured overnight. On day 2, the compound to be tested was prepared to 2-fold the final concentration, 1 mL of the compounds at different concentrations were added to administration wells, a medium containing 0.2% DMSO was added to control wells, and the plate was incubated for 24 hours at 37° C. […] The supernatant was collected and the protein content was determined using the BCA method. The protein sample to be tested was diluted to 2 mg/mL, PARP2 was detected using a fully automated protein expression quantitative analyzer (ProteinSimple), and the internal reference protein was 3-actin (both antibodies were from CST). The software (Compass for SW) of the fully automated protein expression quantitative analyzer was used to process the raw data and calculate the peak area and the PARP2 expression rate relative to the control group. DC50 values were calculated using a four-parameter non-linear fitting model in Graphpad 8.3.0 software.

For the next series, the target named is PARP1 (Homo sapiens (Human), UniProt P09874). Kind of series: PARP1 protein expression level in MDA-MB-231 cells. Conditions: 24 hours. Type of series: cell-based. As to the method:
The cells were collected into a 1.5 mL centrifuge tube, 25 μL of RIPA lysis buffer (containing 1× protease inhibitor cocktail) was added, and the cells were lysed on ice for 15 minutes and centrifuged at 12000 rpm/min at 4° C. for 10 minutes. The supernatant was collected and the protein content was determined using the BCA method. […] DC50 values were calculated using a four-parameter non-linear fitting model in Graphpad 8.3.0 software.

Series [1] in a line: Pharmacokinetic test in rats. The class given is in vivo, SD rats. As to the method: 7.1 Experimental animals: male SD rats, about 220 g, 6-8 weeks old, 6 rats/compound, purchased from Chengdu Ddossy Experimental Animals Co., Ltd.
7.2 Experimental design: on the day of the experiment, 12 SD rats were randomly grouped according to their body weights. The animals were fasted with water available for 12 to 14 h one day before the administration, and were fed 4 h after the administration.
Before and after the administration, 0.15 mL of blood was taken from the orbit of the animals under isoflurane anesthesia and placed in an EDTAK2 centrifuge tube. The blood was centrifuged at 5000 rpm and 4° C. for 10 min to collect plasma. The blood collection time points for the intravenous administration group and intragastric administration group were: 0, 5 min, 15 min, 30 min, 1 h, 2 h, 4 h, 6 h, 8 h, and 24 h. Before analysis and detection, all samples were stored at −80° C. The samples were analyzed quantitatively by LC-MS/MS.

[2] abbreviates: male, SD, rat, iv, i.v. 2.5 mg/kg, plasma.

Chain of PARP2 (Q9UGN5 whole entry): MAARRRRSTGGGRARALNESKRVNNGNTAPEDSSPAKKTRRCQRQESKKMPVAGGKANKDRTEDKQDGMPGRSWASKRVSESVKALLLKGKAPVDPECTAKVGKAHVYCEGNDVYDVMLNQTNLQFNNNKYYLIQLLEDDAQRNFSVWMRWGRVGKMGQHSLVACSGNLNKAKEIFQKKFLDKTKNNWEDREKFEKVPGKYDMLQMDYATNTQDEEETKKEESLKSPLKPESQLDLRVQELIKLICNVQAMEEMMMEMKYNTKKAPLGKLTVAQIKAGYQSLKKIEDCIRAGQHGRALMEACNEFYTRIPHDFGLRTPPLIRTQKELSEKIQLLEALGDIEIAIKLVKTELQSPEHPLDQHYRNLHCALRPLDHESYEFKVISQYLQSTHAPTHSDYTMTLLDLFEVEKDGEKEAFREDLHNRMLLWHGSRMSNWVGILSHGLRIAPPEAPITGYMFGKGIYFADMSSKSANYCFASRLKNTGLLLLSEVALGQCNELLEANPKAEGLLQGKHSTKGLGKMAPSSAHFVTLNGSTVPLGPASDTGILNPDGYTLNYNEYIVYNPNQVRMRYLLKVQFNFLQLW
Chain of PARP1 (P09874 whole entry): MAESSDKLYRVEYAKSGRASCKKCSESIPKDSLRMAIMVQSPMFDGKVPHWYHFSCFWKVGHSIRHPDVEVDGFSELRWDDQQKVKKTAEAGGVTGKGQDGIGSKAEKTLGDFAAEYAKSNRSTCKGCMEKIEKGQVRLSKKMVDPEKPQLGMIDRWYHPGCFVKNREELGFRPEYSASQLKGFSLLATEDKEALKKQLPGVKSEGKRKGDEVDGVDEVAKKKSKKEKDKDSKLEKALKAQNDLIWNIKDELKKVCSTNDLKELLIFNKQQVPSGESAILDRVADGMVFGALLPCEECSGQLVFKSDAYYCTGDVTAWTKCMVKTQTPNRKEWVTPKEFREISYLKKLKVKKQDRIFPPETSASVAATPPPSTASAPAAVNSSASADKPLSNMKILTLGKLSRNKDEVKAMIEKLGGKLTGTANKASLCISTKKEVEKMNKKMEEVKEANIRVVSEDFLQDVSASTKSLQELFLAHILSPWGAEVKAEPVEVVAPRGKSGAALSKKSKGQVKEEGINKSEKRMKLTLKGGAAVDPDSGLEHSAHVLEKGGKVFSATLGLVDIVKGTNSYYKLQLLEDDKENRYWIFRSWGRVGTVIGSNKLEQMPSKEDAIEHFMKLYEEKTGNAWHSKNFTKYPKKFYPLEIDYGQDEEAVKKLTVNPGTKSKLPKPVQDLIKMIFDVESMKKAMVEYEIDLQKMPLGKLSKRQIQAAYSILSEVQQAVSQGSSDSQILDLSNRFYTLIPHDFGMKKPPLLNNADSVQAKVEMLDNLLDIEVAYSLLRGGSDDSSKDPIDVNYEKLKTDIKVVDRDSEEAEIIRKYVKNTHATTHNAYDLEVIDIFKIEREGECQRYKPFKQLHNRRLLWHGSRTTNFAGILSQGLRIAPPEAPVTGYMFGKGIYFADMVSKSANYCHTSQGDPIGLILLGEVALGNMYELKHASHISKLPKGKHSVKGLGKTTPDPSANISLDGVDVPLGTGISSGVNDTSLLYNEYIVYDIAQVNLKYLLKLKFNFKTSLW

For `CCc1cc2ncc(CN3CCN(c4ccc(C(=O)NC5CCN(c6ccc7c(c6)C(=O)N(C6CCC(=O)NC6=O)C7=O)CC5)nc4)CC3)cc2[nH]c1=O` (stereo not drawn) [Compound 10, N-(1-(2-(2,6-dioxopiperidin-3-yl)-1,3-dioxoisoindolin-5-yl)piperidin-4-yl)-5-(4-((7-ethyl-6-oxo-5,6-dihydro-1,5-naphthyridin-3-yl)methyl)piperazin-1-yl)picolinamide], on PARP2, the “PARP1 degradation selectivity over PARP2” value is listed as “good PARP1 degradation selectivity”. Besides, the DC50 at PARP2 (24 hours) is over 10000 nM; on PARP1, 0.12 nM. Also, in series [1], the pharmacokinetic characteristics entry is given as “good pharmacokinetic characteristics”. The F in series [1] (i.g. 10 mg/kg) came to 34.3%. Also, the AUC(0-t) in series [1] (setting [2]) was 31.2 µg·h/mL; in series [1] (male, SD, rat, po, i.g. 10 mg/kg, plasma), 42.9 µg·h/mL. Moreover, in series [1] (setting [2]), the clearance was 0.0852 L/h/kg. Also, the Vd in series [1] (male, SD, rat, iv, i.v. 2.5 mg/kg, plasma, read-out: Vdss) is 0.405 L/kg.
